**Q.** For `O=C(O)C1=Cc2cc(-c3ccc(Cl)cc3)ccc2OCC1`, which melting point is on record?
**A.** 263 to 264 °C

**Q.** Which melting point does the source give for `CCCCc1nn(-c2cc(N)ccc2Cl)c(=O)n1Cc1ccc(-c2ccccc2S(=O)(=O)NC(=O)OC(C)(C)C)cc1F` here?
**A.** 208 to 210 °C

**Q.** For `Cc1oc(-c2ccccc2)nc1COc1ccc(C(=O)c2ccccc2OCC(=O)O)cc1`, which melting point is on record?
**A.** 174 to 175 °C

**Q.** With `Cn1c(C(F)(F)F)cc(=O)n(-c2ccc3snc(C(Cl)Br)c3c2)c1=O` (stereo not given) as the compound, how does the melting point read?
**A.** 93 to 96 °C

**Q.** With `COc1ccccc1COc1ccc(S(=O)(=O)c2ccc(C)nc2Nc2cc(OC)c(OC)cc2C)cc1` as the compound, how does the melting point read?
**A.** 62 to 66 °C

**Q.** Which melting point does the source give for `CCC(=O)NCC=C1CCc2ccc3nc(C)oc3c21` here?
**A.** 214 to 216 °C

**Q.** Which melting point does the source give for `O=C(O)c1cc(S(=O)(=O)NCCc2ccccc2Cl)ccc1Cl` here?
**A.** 175 to 177 °C

**Q.** With `O=C(OCCCSc1cccc2nccn12)c1ccccc1` as the compound, how does the melting point read?
**A.** 60 to 61 °C

**Q.** Which melting point does the source give for `O=C(CC(CSC(=O)c1ccccc1)C(=O)O)c1ccc(Br)cc1` (stereo not given) here?
**A.** 133 to 135 °C

**Q.** For `COc1cccc(SSc2cccc(OC)c2S(=O)(=O)NC(C)(C)C)c1S(=O)(=O)NC(C)(C)C`, which melting point is on record?
**A.** 275 °C

**Q.** With `CCC(C)n1nnc2c(N=C=S)cccc21` (stereo not given) as the compound, how does the melting point read?
**A.** 77 to 78 °C

**Q.** Which melting point does the source give for `CN(C)C(=O)Nc1cc(Br)ccc1N1CCc2ccccc21` here?
**A.** 119 to 121 °C

**Q.** Which melting point does the source give for `Cc1ccc(NC(=O)c2ccc3ncccc3c2)cc1NC(=O)c1cccc(OCCN2CCOCC2)c1` here?
**A.** 216 to 217 °C

**Q.** For `N#CCCNC(=O)c1cccc(-c2ccc3c(c2)N(Cc2ccc(Cl)cc2Cl)CCCC3)c1`, which melting point is on record?
**A.** 139 to 140 °C

**Q.** For `C(=Cc1ccc(OCCCCc2nnn[nH]2)cc1)c1ccncc1`, which melting point is on record?
**A.** 158 to 159 °C

**Q.** For `CC(C)Cc1ccc2oc(=O)c(=O)oc2c1`, which melting point is on record?
**A.** 92 to 97 °C

**Q.** For `O=C(OC(c1ccccc1)c1ccccc1)C1=CSC2C(=Cc3cn4c(n3)SCC4)C(=O)N12` (stereo not given), which melting point is on record?
**A.** 160 to 161 °C

**Q.** With `CCCN1C(=O)C2CC(c3ccc(N(C)C)cc3)(C2)C1=O` as the compound, how does the melting point read?
**A.** 134 to 135 °C

**Q.** With `C[C@@H](Oc1ccc2c(c1)N(C)C(=O)N(c1ccc(Cl)cc1)S2(=O)=O)C(=O)O` as the compound, how does the melting point read?
**A.** 85 to 95 °C

**Q.** With `COC(=O)NNC(=O)c1ccc(O)cc1` as the compound, how does the melting point read?
**A.** 229 to 230 °C

**Q.** Which melting point does the source give for `CC(C)Oc1ccc(S(=O)(=O)N2CCCC2=O)cc1` here?
**A.** 88 to 90 °C

**Q.** Which melting point does the source give for `COc1ccc(-c2coc3cc(OCC(O)CN4CCOCC4)ccc3c2=O)cc1OC` (stereo not given) here?
**A.** 135 to 136 °C

**Q.** Which melting point does the source give for `N#Cc1cccc(-n2c(=O)oc3ccc(-c4ccc(F)cc4F)cc3c2=O)c1` here?
**A.** 209 to 210 °C

**Q.** With `CCCNS(=O)(=O)CCCCl` as the compound, how does the melting point read?
**A.** 47.5 to 48 °C

**Q.** For `CC(C)c1csc(/C=C/c2cccc(NC(=O)Cc3ccccc3CC(=O)O)c2)n1`, which melting point is on record?
**A.** 144 to 146 °C

**Q.** With `O=C(c1ccccc1)c1ccc(S)cc1` as the compound, how does the melting point read?
**A.** 72 to 75 °C

**Q.** Which melting point does the source give for `CC(=O)N1CCC(c2nn(-c3ccc(C(F)(F)F)cc3)c3ccccc23)CC1` here?
**A.** 148 to 150 °C

**Q.** For `Cc1cc(-c2ccc(Cl)c(Cl)c2)nc(-n2cnc(-c3cccc(S(N)(=O)=O)c3)c2)n1`, which melting point is on record?
**A.** 210 °C

**Q.** Which melting point does the source give for `N#Cc1cc(F)c(N2C(=O)C3CCCCN3C2=O)nc1Cl` (stereo not given) here?
**A.** 192 to 193 °C

**Q.** For `O=C(O)Cc1cc(S)n2ncnc2n1`, which melting point is on record?
**A.** 283 to 286 °C

**Q.** Which melting point does the source give for `Cc1ccc(-c2nc(CCC(=O)c3ccc(Br)s3)c(C)o2)cc1` here?
**A.** 118 to 119 °C

**Q.** With `CCN(CC)C(=O)Cn1c(=N)sc2cc(OC(F)(F)F)ccc21` as the compound, how does the melting point read?
**A.** 223 °C

**Q.** For `Cc1ccnc2c1C(=O)CC(c1ccccc1Cl)C2` (stereo not given), which melting point is on record?
**A.** 97 to 98 °C

**Q.** With `CC(C)(CO)CCCC(O)CCCC(O)CCCC(C)(C)CO` (stereo not given) as the compound, how does the melting point read?
**A.** 85 to 86 °C

**Q.** Which melting point does the source give for `CN(C)C=C(C#N)C(=O)Nc1ccccc1Br` here?
**A.** 140 to 141 °C

**Q.** For `CCCc1cc(-c2ccc(Cl)cc2)nc2c(C(=O)Nc3cccc(S(C)(=O)=O)c3)cnn12`, which melting point is on record?
**A.** 214 to 217 °C

**Q.** Which melting point does the source give for `CCOC(=O)c1c(O)c2cc(Br)ccc2c(=O)n1CC1CC1` here?
**A.** 64 to 65 °C

**Q.** With `Nc1ncc2cc(-c3c(Cl)cccc3Cl)c(=O)n(Cc3c(Cl)cccc3Cl)c2n1` as the compound, how does the melting point read?
**A.** 274 to 276 °C

**Q.** For `Oc1ncc(-c2ccccc2Cl)cn1`, which melting point is on record?
**A.** 232 to 233 °C

**Q.** With `NC(=O)c1ccc(-c2ccc3nnn(Cc4ccc5ncccc5c4)c3n2)cc1F` as the compound, how does the melting point read?
**A.** 198 to 200 °C

**Q.** For `COc1cc2c(cc1OC)C(CNC(=O)N(C)O)CC2` (stereo not given), which melting point is on record?
**A.** 120 to 121 °C

**Q.** For `Cc1cc(C)c2cccc(OCc3c(Cl)ccc(S(=O)(=O)N4CCC[C@H]4C(=O)NCCCNC(=O)c4ccc(C=NN)cc4)c3Cl)c2n1`, which melting point is on record?
**A.** 178 to 180 °C

**Q.** With `CC[C@]1(C(=O)NCC=Cc2ccccc2F)[C@H](C)C1(Cl)Cl` (relative stereo) as the compound, how does the melting point read?
**A.** 103 to 105 °C

**Q.** Which melting point does the source give for `CC1(C)Cc2c(N)c(Cl)cc(C(=O)NC3CCN(CCCC4(C)OCCO4)CC3)c2O1` here?
**A.** 136 °C

**Q.** Which melting point does the source give for `COc1cc2c(cc1N1CCNCC1)N(C(=O)c1ccc(-c3ccc(-c4noc(C)n4)cc3C)cc1)CC2` here?
**A.** 153 to 155 °C

**Q.** Which melting point does the source give for `CC1CC(=O)c2cc(OCc3ccc4ccccc4n3)cnc2C1` (stereo not given) here?
**A.** 141 to 144 °C

**Q.** With `Cc1cc(-c2n[nH]c(Cc3ccccc3)n2)sc1C(=O)NCc1ccccc1` as the compound, how does the melting point read?
**A.** 168 to 171 °C

**Q.** For `N#Cc1ccc(F)c(-c2ccc(OC(F)(F)F)cc2)c1`, which melting point is on record?
**A.** 63.5 to 64.2 °C

**Q.** For `NC(=O)CC(=O)NCCCOc1cccc(CN2CCCCC2)c1`, which melting point is on record?
**A.** 85.3 to 88.3 °C

**Q.** Which melting point does the source give for `CCNC(=O)Nc1nc2cc(-c3cccnc3)cc(N3CCC(N(C)C)C3)n2n1` (stereo not given) here?
**A.** 248 to 250 °C

**Q.** Which melting point does the source give for `CC(C)OC(=O)CSc1ncnc2c(O)n(C)nc12` here?
**A.** 192 to 194 °C

**Q.** For `CCCCCCCCCC(=O)OC1CCC2(CC(=O)N(CCCCN3CCN(c4nsc5ccccc45)CC3)C(=O)C2)C1` (stereo not given), which melting point is on record?
**A.** 117 to 119 °C

**Q.** For `FC(F)C(F)(F)Oc1cccc(Nc2nccc(-c3cccs3)n2)c1`, which melting point is on record?
**A.** 115 to 116 °C

**Q.** Which melting point does the source give for `COc1ccccc1N1CCN(C(=O)CCCN2CC=C(c3c[nH]c4cc(F)ccc34)CC2)CC1` here?
**A.** 118 to 120 °C

**Q.** Which melting point does the source give for `CC(=O)c1ccc2c(c1)C(C(=O)Nc1cccc(C(=O)Nc3ccc(Br)cc3)c1)C(=O)N2C` (stereo not given) here?
**A.** 234 to 236 °C

**Q.** For `O=C(CC(F)=C(F)F)Oc1ccc([N+](=O)[O-])cc1`, which melting point is on record?
**A.** 58 to 62 °C

**Q.** Which melting point does the source give for `N#CNC(=Nc1cccnc1)NC1CCN(Cc2ccccc2)CC1` here?
**A.** 173 to 174 °C

**Q.** Which melting point does the source give for `CC1(C)NC(=O)CN1C(=O)CNC(=O)OCc1ccccc1` here?
**A.** 135 to 136 °C

**Q.** Which melting point does the source give for `C#CCOc1ccc(C)nc1` here?
**A.** 32 to 34 °C

**Q.** Which melting point does the source give for `O=C(/C=C/c1ccc(Cl)cc1)N1CCN(C(=O)c2cc(C(F)(F)F)cc(C(F)(F)F)c2)[C@H](Cc2c[nH]c3ccccc23)C1` here?
**A.** 125 to 138 °C

**Q.** With `COc1ccccc1N1CCN(CCn2c(O)nc3sc4c(c3c2=O)CCN(C(C)=O)C4)CC1` as the compound, how does the melting point read?
**A.** 135 to 137 °C

**Q.** For `NS(=O)(=O)c1cc2cc(C=O)sc2s1`, which melting point is on record?
**A.** 188 to 189 °C

**Q.** With `Cc1ccc(N(C)S(=O)(=O)c2cccs2)c2[nH]c(C(N)=O)cc12` as the compound, how does the melting point read?
**A.** 221 to 222 °C

**Q.** For `CCOC(=O)C1=C(C)NC(c2csc(Cl)n2)=NC1c1ccc(F)cc1Cl` (stereo not given), which melting point is on record?
**A.** 141 to 143 °C

**Q.** With `CCOC(=O)c1nc(-c2ccc(OC)c(OC)c2)cs1` as the compound, how does the melting point read?
**A.** 100 to 102 °C

**Q.** Which melting point does the source give for `CCCCCCCCC(O)Cc1ccc(OCc2ccccc2)c(OCc2ccccc2)c1` (stereo not given) here?
**A.** 55 to 57 °C

**Q.** Which melting point does the source give for `COc1ccc(CCn2cc(C(=O)NCCN(C)C)c3nc4c(C)cccc4cc3c2=O)cc1OC` here?
**A.** 113 to 114 °C

**Q.** With `CCCC1=C(C(=O)OCC)C(c2cccc(Cl)c2Cl)c2c[nH]nc2N1` (stereo not given) as the compound, how does the melting point read?
**A.** 220 °C

**Q.** For `CCCN(CCC)C(=O)COc1nc(-c2ccccc2)nc(C)c1C`, which melting point is on record?
**A.** 88 to 89 °C

**Q.** Which melting point does the source give for `CCCCCCN(CCCCCC)CC1CCN(C(=O)Oc2ccc(Oc3ccccc3)cc2)CC1` here?
**A.** 46 to 47 °C

Source: a melting point compilation (Tetko et al.; mined from patent text by program, amines drawn as free bases though some values may be those of a salt)
